# According to patent US20070099877A1, “N-aryl-thienopyrimidin-4-amines and analogs as activators of caspases and inducers of apoptosis and the use thereof” (Cytovia, Inc., priority 2005, published 2007):
# Counter-ions that a name gives are not always drawn. Like-named read-outs stand apart in the source and are kept apart here.
# Experiments:
# Assay type in all cases: cell-based
# [1] = test system: human hepatocellular carcinoma cell line SNU398; test: Caspase cascade activation in SNU398 cells; conditions: Homo sapiens, SNU-398, 48 h, read-out: Caspase activation Potency EC50 SNU398 (48 h)
# Description: (§1) Human breast cancer cell line T-47D, human lung cancer cell line H1299, human hepatocellular carcinoma cell line SNU398, human colon carcinoma cell line HCT116 were grown according to media component mixtures designated by American Type Culture Collection+10% FCS (Invitrogen Corporation), in a 5% CO2-95% humidity incubator at 37° C. T-47D and H1299 cells were maintained at a cell density between 50 and 80% confluency at a cell density of 0.1 to 0.6×10^6 cells/mL. Cells were harvested at 600×g and resuspended at 0.65×10^6 cells/mL into appropriate media+10% FCS. An aliquot of 22.5 μL of cells was added to a well of a 384-well microtiter plate containing 2.5 μL of a 10% DMSO in RPMI-1640 media solution containing 0.16 to 100 μM of N-(2,5-dimethoxyphenyl)-2-methylthieno[3,2-d]pyrimidin-4-amine or other test compound (0.016 to 10 μM final). An aliquot of 22.5 μL of cells was added to a well of a 384-well microtiter plate containing 2.5 μL of a 10% DMSO in RPMI-1640 media solution without test compound as the control sample. The samples were mixed by agitation and then incubated at 37° C. for 24 h or 48 h in a 5% CO2-95% humidity incubator. After incubation, the samples were removed from the incubator and 25 μL of a solution containing 14 μM of N-(Ac-DEVD)-N′-ethoxycarbonyl-R110 (SEQ ID NO.:1) fluorogenic substrate (Cytovia, Inc.; WO99/18856), 20% sucrose (Sigma), 20 mM DTT (Sigma), 200 mM NaCl (Sigma), 40 mM Na PIPES buffer pH 7.2 (Sigma), and 500 μg/mL lysolecithin (Calbiochem) was added. The samples were mixed by agitation and incubated at room temperature. Using a fluorescent plate reader (Model SPECTRAfluor Plus, Tecan), an initial reading (T=0) was made approximately 1-2 min after addition of the substrate solution, employing excitation at 485 nm and emission at 530 nm, to determine the background fluorescence of the control sample. After the 3 h incubation, the samples were read for fluorescence as above (T=3 h).
# (§2) The Relative Fluorescence Unit values (RFU) were used to calculate the sample readings as follows: RFU(T=3h)−Control RFU(T=O)=Net RFU(T=3h)
# (§3) The activity of caspase cascade activation was determined by the ratio of the net RFU value for N-(2,5-dimethoxyphenyl)-2-methylthieno[3,2-d]pyrimidin-4-amine or other test compound to that of control samples. The EC50 (nM) was determined by a sigmoidal dose-response calculation (Prism 3.0, GraphPad Software Inc.).
# [2] = test system: human breast cancer cell line T-47D; test: Caspase cascade activation (DEVD-R110 fluorogenic substrate) in T-47D cells; conditions: Homo sapiens, T47D
# Description: as §1, §2, §3
# [3] = test system: human colon carcinoma cell line HCT116; test: Caspase cascade activation in HCT116 cells; conditions: Homo sapiens, HCT-116, 48 h, read-out: Caspase activation Potency EC50 HCT116 (48 h)
# Description: as §1, §2, §3
# [4] = test system: human lung cancer cell line H1299; test: Caspase cascade activation in H1299 cells; conditions: NCI-H1299, 24 h, read-out: Caspase activation Potency EC50 H1299 (24 h)
# Description: as §1, §2, §3
# [5] = 24 h, T47D cells, 24 h, read-out: Caspase activation Potency EC50 T47D (24 h)
# [6] = 48 h, T-47D cells, 48 h, read-out: Caspase activation Potency EC50 T-47D (48 h)
SMILES,EC50 [1],"EC50 [2, 5]","EC50 [2, 6]",EC50 [3],EC50 [4]
"COc1ccc(OC)c(Nc2nc(C)nc3sccc23)c1 [Example 3, N-(2,5-Dimethoxyphenyl)-2-methylthieno[2,3-d]pyrimidin-4-amine]",4.66 µM,121 nM,311 nM,5.55 µM,5 µM
"COc1ccccc1Nc1ncnc2ccsc12 [Example 4, N-(2-Methoxyphenyl)thieno[3,2-d]pyrimidin-4-amine]",> 10 µM,> 10000 nM,> 10000 nM,> 10 µM,> 10 µM
"COc1ccc(OC)c(Nc2nc(C)nc3scc(C)c23)c1 [Example 7, N-(2,5-Dimethoxyphenyl)-2,5-dimethylthieno[2,3-d]pyrimidin-4-amine hydrochloride]",> 10 µM,> 10000 nM,> 10000 nM,> 10 µM,> 10 µM
"COc1ccc(Nc2ncnc3ccsc23)c(OC)c1 [Example 8, N-(2,4-Dimethoxyphenyl)thieno[3,2-d]pyrimidin-4-amine hydrochloride]",> 10 µM,> 10000 nM,> 10000 nM,> 10 µM,> 10 µM
"COc1cccc(Nc2ncnc3ccsc23)c1OC [Example 9, N-(2,3-Dimethoxyphenyl)thieno[3,2-d]pyrimidin-4-amine hydrochloride]",> 10 µM,> 10000 nM,> 10000 nM,> 10 µM,> 10 µM
"COc1cc(Nc2ncnc3ccsc23)cc(OC)c1OC [Example 10, N-(3,4,5-Trimethoxyphenyl)thieno[3,2-d]pyrimidin-4-amine hydrochloride]",1.05 µM,65 nM,72 nM,5 µM,5.02 µM
"COc1cccc(Nc2ncnc3ccsc23)c1 [Example 11, N-(3-Methoxyphenyl)thieno[3,2-d]pyrimidin-4-amine hydrochloride]",5.73 µM,555 nM,1190 nM,> 10 µM,5.37 µM
"COc1cc(O)cc(Nc2ncnc3ccsc23)c1 [Example 44, N-(3-Hydroxy-5-methoxyphenyl)thieno[3,2-d]pyrimidin-4-amine]",–,1100 nM,–,–,2.68 µM
"COc1cc(Nc2ncnc3sccc23)cc(OC)c1 [Example 45, N-(3,5-Dimethoxyphenyl)thieno[2,3-d]pyrimidin-4-amine]",> 10 µM,–,87 nM,> 10 µM,–
"COc1cc(Nc2ncnc3c(C)csc23)cc(OC)c1 [Example 46, N-(3,5-Dimethoxyphenyl)-7-methylthieno[3,2-d]pyrimidin-4-amine]",> 10 µM,–,1520 nM,> 10 µM,–
"COc1cc(Nc2ncnc3sc(C)c(C)c23)cc(OC)c1 [Example 47, N-(3,5-Dimethoxyphenyl)-5,6-dimethylthieno[2,3-d]pyrimidin-4-amine]",> 10 µM,–,> 10000 nM,> 10 µM,–
"COc1cc(Nc2ncnc3sc(C)cc23)cc(OC)c1 [Example 48, N-(3,5-Dimethoxyphenyl)-6-methylthieno[2,3-d]pyrimidin-4-amine]",> 10 µM,–,1990 nM,> 10 µM,–
"COc1cc(Nc2ncnc3sc(-c4ccccc4)c(C)c23)cc(OC)c1 [Example 49, N-(3,5-Dimethoxyphenyl)-5-methyl-6-phenylthieno[2,3-d]pyrimidin-4-amine]",> 10 µM,–,> 10000 nM,> 10 µM,–
"COc1cc(Nc2ncnc3scc(C)c23)cc(OC)c1 [Example 50, N-(3,5-Dimethoxyphenyl)-5-methylthieno[2,3-d]pyrimidin-4-amine]",≥ 10 µM,–,4360 nM,≥ 10 µM,–
"COc1cc(Nc2nc(C)nc3scc(C)c23)cc(OC)c1 [Example 51, N-(3,5-Dimethoxyphenyl)-2,5-dimethylthieno[2,3-d]pyrimidin-4-amine]",2.64 µM,–,2490 nM,3.7 µM,–
"COc1cc(Nc2nc(C)nc3cc(Br)sc23)cc(OC)c1 [Example 52, N-(3,5-Dimethoxyphenyl)-6-bromo-2-methylthieno[3,2-d]pyrimidin-4-amine]",0.468 µM,32 nM,33 nM,0.082 µM,–
"COc1cc(Nc2ncnc3cc(I)sc23)cc(OC)c1 [Example 53, N-(3,5-Dimethoxyphenyl)-6-iodothieno[3,2-d]pyrimidin-4-amine]",0.868 µM,–,723 nM,2.45 µM,–
"COc1cc(Nc2nc(C)nc3sccc23)cc(OC)c1 [Example 55, N-(3,5-Dimethoxyphenyl)-2-methylthieno[2,3-d]pyrimidin-4-amine]",> 10 µM,112 nM,99 nM,> 10 µM,–
"COc1cc(Nc2ncnc3ccsc23)cc(C(F)(F)F)c1 [Example 56, N-(5-Methoxy-3-trifluoromethylphenyl)thieno[3,2-d]pyrimidin-4-amine]",1.03 µM,–,1840 nM,2.61 µM,–
"Cc1cc(C)cc(Nc2ncnc3ccsc23)c1 [Example 57, N-(3,5-Dimethylphenyl)thieno[3,2-d]pyrimidin-4-amine]",> 10 µM,–,> 10000 nM,> 10 µM,–
"COC(=O)c1cc(Nc2ncnc3ccsc23)cc(C(=O)OC)c1 [Example 58, Dimethyl 5-(thieno[3,2-d]pyrimidin-4-ylamino)benzene-1,3-dioate]",0.168 µM,> 10000 nM,565 nM,0.347 µM,–
"COc1cc(Nc2ncnc3ccsc23)cc([N+](=O)[O-])c1 [Example 59, N-(3-Methoxy-5-nitrophenyl)thieno[3,2-d]pyrimidin-4-amine]",3.25 µM,–,> 10000 nM,> 10 µM,–
"CS(=O)(=O)c1cc(Nc2ncnc3ccsc23)cc(S(C)(=O)=O)c1 [Example 60, N-(3,5-Bis(methylsulfonyl)phenyl)thieno[3,2-d]pyrimidin-4-amine]",> 10 µM,–,> 10000 nM,> 10 µM,–
"COc1cc(Nc2nc(C)nc3ccsc23)cc(N(C)C)c1 [Example 63, N-(3-Dimethylamino-5-methoxyphenyl)-2-methylthieno[3,2-d]pyrimidin-4-amine]",0.706 µM,–,320 nM,1.26 µM,–
"COc1cc(Nc2ncnc3cc(Br)sc23)cc(N(C)C)c1 [Example 64, 6-Bromo-N-(3-dimethylamino-5-methoxyphenyl)thieno[3,2-d]pyrimidin-4-amine]",0.565 µM,–,131 nM,1.28 µM,–
"COc1cc(Nc2nc(C)nc3ccsc23)cc(-n2cnnn2)c1 [Example 65, N-(3-Methoxy-5-(1H-tetrazol-1-yl)phenyl)-2-methylthieno[3,2-d]pyrimidin-4-amine]",0.354 µM,–,457 nM,0.62 µM,–
"COc1cc(Nc2nc(C)nc3cc(Br)sc23)cc(N(C)C)c1 [Example 66, 6-Bromo-N-(3-dimethylamino-5-methoxyphenyl)-2-methylthieno[3,2-d]pyrimidin-4-amine]",0.297 µM,–,65 nM,0.498 µM,–
"COc1cc(Nc2ncnc3cc(Br)sc23)cc(OC)c1 [Example 67, 6-Bromo-N-(3,5-dimethoxyphenyl)thieno[3,2-d]pyrimidin-4-amine]",4.95 µM,–,227 nM,> 10 µM,–
"COc1cc(N)cc(Nc2ncnc3ccsc23)c1 [Example 68, N-(3-Amino-5-methoxyphenyl)thieno[3,2-d]pyrimidin-4-amine]",5.08 µM,–,2950 nM,> 10 µM,–
"COc1c(Br)c(N)c(Br)c(Nc2ncnc3ccsc23)c1Br [Example 73, N-(3-Amino-2,4,6-tribromo-5-methoxyphenyl)thieno[3,2-d]pyrimidin-4-amine]",0.605 µM,–,486 nM,1.67 µM,–
